Assay [1] has as its system rat brain receptor (opiate). The assay is described as follows: Rat brain binding assay with tritiated βh-EP as primary ligand (Example 4). The conditions noted are these: for pIC50: 50% inhibiting concentration; for Relative Potency: receptor binding, βh-Endorphin = 100. On the procedure:
Opiate activity was measured in the rat brain binding assay in which tritiated βh -EP is used as primary ligand (Ferrara et al., Biochem. Biophys. Res. Comm. 89, 786 [1979]).

For assay [2], the system named is guinea pig ileum preparations. As to the kind of experiment: Opiate activity: depression of electrically-stimulated contractions of guinea pig ileum preparations. The conditions noted are these: for pIC50: guinea pig ileum assay; for Relative Potency: guinea pig ileum, βh-Endorphin = 100. In kind it is cell-based. Here is the method: (§1) Opiate activity was measured from the depression of electrically-stimulatedcontractions of guinea pig ileum preparations, see Kosterlitz et al., J. Pharmacol. 39, 398 (1970) and Doneen et al., Biochem. Biophys. Res. Commun. 74, 656 (1977). For analgesic assay, male ICR mice weighing 25-30 g (Simonsen Laboratories, Gilroy, CA) were used. Analgesic activity was assessed by the tail-flick method of D'Amour and Smith as described by Li et al., Biochem. Biophys. Res. Commun. 85, 795 (1978).

The nature of assay [3]: Analgesic assay, tail-flick method, intracerebroventricular injection. The class given is in vivo, male ICR mice. The following applies: for Relative Potency: analgesic potency, βh-Endorphin = 100 (run in the same group); for AD50: intracerebroventricular injection, mice, tail-flick, 95% confidence limit in parentheses. Here is the method:
as §1
^a AD50 in nmole (95% confidence limit) by
intracerebroventricular injection.

For another assay, the target named is opiate receptor. The assay is described as follows: Opiate receptor binding assay, rat brain membrane fraction (Example 2). The conditions noted are these: for pIC50: 50% inhibiting concentration, [3H-Tyr27]-βh-EP as primary ligand; for Relative Potency: receptor binding, βh-Endorphin = 100. On the procedure:
The opiate receptor binding assay was performed by the method of Pasternak et al., Mol. Pharmacol. 11, 340 (1975) with modifications using a membrane fraction from rat brain homogenate. [^3 H-Tyr^27 ]-βh -EP was used as primary ligand and synthetic βh -EP as standard competing ligand.

Assay [4] concerns guinea pig ileum preparations. The following applies: βh-EP = 100; cited from earlier work.
The conditions of assay [5]: βh-EP = 100; cited from earlier work.
For assay [6] the following is noted: cited from earlier work.
The mark [7] stands for this setting: tritiated βh-EP as primary ligand.

pIC50: −log10 of the molar value.

On to `CSCC[C@H](NC(=O)[C@H](Cc1ccccc1)NC(=O)CNC(=O)CNC(=O)[C@@H](N)Cc1ccc(O)cc1)C(=O)O` [methionine-enkephalin, reference compound], for which, in assay [1], the “activity in rat brain binding assay (in words)” value is “low activity”. Further, in assay [1] (setting [7]), the “activity in rat brain binding assay, relative to βh-EP” value was 5 % of βh -EP.
A word on the pIC50: it is −log10 of the IC50, conventionally taken in molar units. Consider “[CH3 (CH2)4 NH2^31 ]-βh -EP [[CH(CH2)4 NH2^31]-βh -EP]”, for which the pIC50 in assay [1] (setting [7]) was 9.48. The “Relative Potency” value in assay [1] was 197.
In the case of “[Gln^8, Gly^31 ]-βh -EP-Gly-Gly-NH2 [[Gln^8,Gly^31]-βh -Gly--Gly--NH2]”, in assay [1], the “potency in the binding assay relative to βh-EP (in words)” value is on record as “nine times that of βh -EP” and the “Relative Potency” value is 929. In addition, in assay [1] (setting [7]), the pIC50 is 10.15.
[Gly^31 ]-βh -EP: in assay [2], the pIC50 was 7.12 and the Relative Potency came out at 168. Further, in assay [3], the “Relative Potency” value came to 83 and the AD50 was 0.077 (0.038-0.17) nmole. At opiate receptor, the pIC50 was 9.23 and the Relative Potency is given as 127.
Consider “[Gly^31 ]-βh -EP-Gly-Gly-NH2 [[Gly^31]-βh -EP--Gly--Gly--NH2]”, for which, in assay [1], the “potency in the binding assay relative to βh-EP (in words)” value is “over four times the potency of βh -EP” and the “Relative Potency” value was 433. In assay [1] (setting [7]), this compound had a pIC50 of 9.82.
For the compound “[Gly^31 ]-βh -EP-Gly-NH2 [[Gly^31]-βh -EP--Gly--NH2]”, in assay [1], the “activity in rat brain binding assay (in words)” value is “a further increase in activity” and the “Relative Potency” value was found to be 342. The same compound had a pIC50 in assay [1] (setting [7]) of 9.72.
For “[Gly^31 ]-βh -endorphinamide [[Gly^31]-βh -EP--NH2]”, in assay [2], the pIC50 is 7.19 and the Relative Potency was found to be 200. In assay [3], the “Relative Potency” value amounted to 225 and the AD50 is reported as 0.016 (0.008-0.032) nmole. Besides, at opiate receptor, the pIC50 was 9.52 and the Relative Potency stood at 250. In addition, the “potency in the receptor assay relative to the parent peptide (in words)” value in the assay with opiate receptor (Table 4) is on record as “almost three times more potent”.
In assay [2], “[Gly^31 ]-βh -endorphinylglycine [[Gly^31]-βh -EP--Gly--OH]” had a pIC50 of 7.01 and a Relative Potency of 132. Besides, in assay [3], the “Relative Potency” value came out at 217 and the AD50 was 0.043 (0.031-0.057) nmole. On opiate receptor, this compound had a pIC50 of 9.31 and a Relative Potency of 153.
[Phe^27, Gly^31 ]-βh -EP: in assay [4], the “relative potency previously obtained, guinea pig ileum assay” value is 128. The “relative potency previously obtained, in vivo assay” value in assay [5] is given as 119. In assay [6] (intravenous assay route), the “analgesic potency relative to the parent” value is reported as “about 1.48 times that of the parent”.
For the compound “β-endorphin: the structure corresponding to positions 61-91 of β-lipotropin, namely β-endorphin (YGGFMTSEKSQTPLVTLFKNAIIKNAYKKGE; Beta-endorphin; UniProt P01189 237-267, looked up)”, the “analgesic activity (in words)” value in assay [6] (intravenous route) is listed as “potent analgesic activity by the intravenous route”.
Turning to “βh -Endorphin: synthetic βh -EP as standard competing ligand [reference compound]”, the pIC50 in assay [2] is 6.89; in assay [1] (setting [7]), 9.19; at opiate receptor, 9.12. Moreover, the Relative Potency (in assay [2]; in assay [1]; in assay [3]; in the assay on opiate receptor) was 100 each time.

These data come from US4250087A, “Carboxyl terminus analogs of β-endorphin” (Hoffmann-La Roche Inc., priority 1979, dated 1981).
